Results as given in patent US7884127B2, “Inhibitors of cyclin dependent kinases and their use” (Pirimal Life Sciences Ltd., priority 2002, dated 2011).

Tests used:
[1] = biological target: T1, human Cdk-4/D1 (Homo sapiens, UniProt P11802); assay: Cdk4/Cyclin D1 kinase assay; format: biochemical; conditions: for IC50: phosphorylation of GST-Rb, 32P-ATP filter plate, 30 min at 30° C.; for Ratio of IC50 Cdk2/E:Cdk4/D1: selectivity, Cdk2/E IC50 over Cdk4/D1 IC50
T1 construct: made in house; host or cells: Sf9 insect cells (baculovirus)
T1 sequence (P11802 whole entry): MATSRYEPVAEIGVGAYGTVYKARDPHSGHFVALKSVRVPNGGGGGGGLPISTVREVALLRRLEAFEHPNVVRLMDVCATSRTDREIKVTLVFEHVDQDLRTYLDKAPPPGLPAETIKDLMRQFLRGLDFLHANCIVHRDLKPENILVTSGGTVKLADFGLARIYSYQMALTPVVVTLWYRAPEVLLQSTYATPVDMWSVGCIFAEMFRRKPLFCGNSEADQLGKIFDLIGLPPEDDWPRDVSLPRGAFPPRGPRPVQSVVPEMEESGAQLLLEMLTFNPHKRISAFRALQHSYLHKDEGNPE
T1 sequence (P24385 whole entry partner): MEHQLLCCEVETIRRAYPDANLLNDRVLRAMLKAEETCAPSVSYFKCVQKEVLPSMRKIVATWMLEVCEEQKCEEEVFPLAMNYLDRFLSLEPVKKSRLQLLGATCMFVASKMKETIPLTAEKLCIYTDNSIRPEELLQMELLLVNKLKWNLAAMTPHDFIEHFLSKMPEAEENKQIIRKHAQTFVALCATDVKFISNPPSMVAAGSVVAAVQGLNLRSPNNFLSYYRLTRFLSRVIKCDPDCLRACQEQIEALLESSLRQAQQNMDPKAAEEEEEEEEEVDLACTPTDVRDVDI
From the text: (§1) Cdk4/Cyclin D1 Kinase Assay and Cdk2/Cyclin E Kinase Assay
(§2) The assays measure phosphorylation of retinoblastoma protein (Rb) by Cdk4 or Cdk2 upon activation by cyclin D1 or cyclin E, respectively, through the transfer of (γ^32P)-phosphate from γ^32P-ATP in a 96-well filter plate assay.
(§3) Cdk4 or Cdk2 was co-expressed with cyclin D1 or cyclin E, respectively, by a baculovirus expression system in insect cells. For this, 1×10^7 Sf9 cells were coinfected with baculoviruses containing human Cdk-4 or 2 and cyclin D1 or E genes and after 72 hours cells were lysed in 500 μl of a lysis buffer (50 mM HEPES (pH 7.5), 10 mM MgCl2, 1 mM DTT, 5 μg/ml of aprotinin, 5 μg/ml of leupeptin, 0.1 mM NaF, 0.2 mM phenylmethylsulfonyl fluoride (PMSF), and sodium orthovanadate). Centrifuged lysate was purified on a GST-sepharose column. Purity of the proteins was checked by SDS-PAGE followed by western blots using specific antibodies (Santacruz Biotec, USA) to Cdk4 or Cdk2.
GST-retinoblastoma (Rb) (aa 776-928) fusion protein is expressed in the bacteria E. coli and purified by GSH-Sepharose affinity chromatography. The GST-Rb bound to these beads served as the substrate in the assay.
(§4) Quantitation was by scintillation detection of (^32P)-GST-Rb in 96-well filter plates using Top Count scintillation 96-well counter (Packard, USA).
The Cdk 4 or Cdk 2 enzyme assay was run in 96-well format using Millipore Multiscreen filtration plates. All assay steps took place in a single filter plate (Unifilter plates, Packard, USA). The filtration wells were pre-wet with kinase buffer (100 μl/well) and the solution was then removed by the application of vacuum, with the filter plate on a vacuum manifold and the vacuum on. 50 μl of GST-Rb bound to GSH-Sepharose beads in kinase buffer (0.5 μg GST-Rb/50 μl) was added to each well and vacuum was applied to removed the buffer. A further 25 μl of a reaction mix containing ATP (cold+hot) and phosphatase inhibitors diluted in kinase buffer were added to each well, followed by the addition of test compound (4× final concentration in kinase buffer) or kinase buffer (control) in an additional 25 μl volume. Finally 50 μl (100 ng) of human Cdk-4/D1 or Cdk-2/E enzyme in kinase buffer was added to each well to initiate the reaction. The reaction was incubated for 30 min at 30° C. After the reaction was complete, vacuum was applied and the plate was washed with the wash buffer (TNEN buffer) three times. The filter plate was air-dried and placed in a Multiscreen adapter plate. To each well, 30 μl Packard Microscint-O cocktail was added and the plate was covered with a Top-Seal A film. The plate was counted in a Packard Top Count Scintillation Counter for 10 min. […]

[2] = biological target: T2, human Cdk-2/E (Homo sapiens, UniProt P24941); assay: Cdk2/Cyclin E kinase assay; format: biochemical; conditions: phosphorylation of GST-Rb, 32P-ATP filter plate, 30 min at 30° C.
T2 construct: made in house; host or cells: Sf9 insect cells (baculovirus)
From the text: as §1, §2
as §3, with “Cdk2. […]” for “Cdk2.”
as §4
The Cdk 4 or Cdk 2 enzyme assay was run in 96-well format using Millipore Multiscreen filtration plates. […] The plate was counted in a Packard Top Count Scintillation Counter for 10 min. […]

SMILES: CN1CC[C@@H](c2c(O)cc(O)c3c(=O)cc(-c4c(F)cccc4F)oc23)[C@@H]1CO (single isomer, unassigned) [Example 80, (+)-trans-2-(2,6-Difluoro-phenyl)-5,7-dihydroxy-8-(2-hydroxymethyl-1-methyl-pyrrolidin-3-yl)-chromen-4-one]
- melting point: 242 to 244 °C
- IC50 [1]: 0.28 µM
- Ratio of IC50 Cdk2/E:Cdk4/D1 [1]: 31.2
- IC50 [2]: 8.75 µM

SMILES: COc1ccc(Br)c(-c2cc(=O)c3c(O)cc(O)c([C@@H]4CCN(C)[C@H]4CO)c3o2)c1 (single isomer, unassigned) [Example 36 (Compound A), (+)-trans-2-(2-Bromo-5-methoxy-phenyl)-5,7-dihydroxy-8-(2-hydroxymethyl-1-methyl-pyrrolidin-3-yl)-chromen-4-one]
- IC50 [1]: 0.08 µM
- Ratio of IC50 Cdk2/E:Cdk4/D1 [1]: 75.0
- IC50 [2]: 6 µM
